From patent US5763235A (priority 1994, dated 1998) come the findings set out here.

Read-outs that look alike come from different tables or passages of the source.

Experiment [1] deals with ALA dehydratase variant of strain CR-514. The experiment is described as follows: ALA dehydratase reaction with crude enzyme of strain CR-514. Format: biochemical, Rhodobacter sphaeroides CR-514. Conditions: enzyme of CR-514, unit not given (concentrations in method in mM).
Experiment [2] addresses ALA dehydratase variant of strain CR-520. The experiment is described as follows: ALA dehydratase reaction with crude enzyme of strain CR-520. Format: biochemical, Rhodobacter sphaeroides CR-520. The settings on record: inhibitor constant of levulinic acid, Dixon plot; enzyme of CR-520; 37° C., 60 minutes; unit not given (concentrations in method in mM).
Experiment [3] has as its target ALA dehydratase of Rhodobacter sphaeroides CR-450. The experiment is described as follows: ALA dehydratase reaction with crude enzyme of CR-450 (Comparative Example 2). Format: biochemical. The settings on record: inhibitor constant of levulinic acid, Dixon plot, 37° C., 60 minutes, unit not given (concentrations in method in mM).
Experiment [4] concerns Rhodobacter sphaeroides IFO 12203. Conditions: glycine 30 mM, 30° C., dark. As for the experimental part:
(§1) A 500 ml portion of medium 1 was prepared in a 2 l capacity shaking flask. This was sterilized at 121° C. for 15 minutes and then spontaneously cooled.
(§2) Separately from this, each of the mutant strains CR-514, CR-520 and CR-533 obtained in Example 3 was inoculated into a 21 mm.phi. test tube containing 10 ml of medium 1 which was sterilized in the same manner as described in the foregoing and cultured in the dark at 30° C. for 48 hours on a shaker.
(§3) The entire portion of each culture broth was inoculated into the aforementioned shaking flask and cultured in the dark at 30° C. for 48 hours on a shaker, and the resulting cells were collected by centrifugation.
(§4) The thus collected cells were suspended in 150 ml of sterilized medium 1, to a wet cell density of about 0.3 g/10 ml, and the cell suspension was mixed with 30 mM of glycine and dispensed in 10 ml portions into 21 mm.phi. test tubes. After adding varied concentration of levulinic acid, shaking culture was carried out at 30° C. in the dark.
(§5) (Clinical Chemistry, 36(8): 1494 (1990)).

The subject of experiment [5] is strain CR-514. Conditions: glycine 30 mM, 30° C., dark. The protocol:
as §1, §2, §3, §4, §5

Experiment [6] concerns strain CR-520. Conditions: glycine 30 mM, 30° C., dark. The protocol:
as §1, §2, §3, §4, §5

Experiment [7] concerns strain CR-533. Conditions: glycine 30 mM, 30° C., dark. The protocol:
as §1, §2, §3, §4, §5

For experiment [8], the system named is Rhodobacter sphaeroides CR-450. The settings on record: glycine 30 mM, 30° C., dark. The protocol:
as §1, §2, §3, §4, §5
The process of Example 4 was conducted, except that Rhodobacter sphaeroides CR-450 was used and the amount of levulinic acid was changed as shown in Table 3.

Experiment [9] has as its target ALA dehydratase of strain CR-533. Conditions: inhibitor constant of levulinic acid, Dixon plot; enzyme of CR-533; 37° C., 60 minutes; unit not given (concentrations in method in mM).

Broadly, the Km is the concentration of substrate that gives half-maximal velocity. Turning to `NCC(=O)CCC(=O)O` [ALA, 5-aminolevulinic acid], the Km in experiment [1] (Michaelis constant for ALA, Lineweaver-Burk) was 0.76 mM.

What is called Ki is a measure of affinity in units of concentration, obtained from inhibition or displacement. On to `CC(=O)CCC(=O)O` [levulinic acid], for which the Ki is 0.21 mM in experiment [1] (inhibitor constant of levulinic acid, Dixon plot, 37° C., 60 minutes); 0.07 mM in experiment [2]; 0.37 mM in experiment [3]; 0.36 mM in experiment [9]. Besides, the “Amount of ALA formed after 15 hours” value in experiment [4] (levulinic acid 5 mM) is given as 0.01 mM; in experiment [4] (levulinic acid 15 mM) it was 0.1 mM; in experiment [5] (levulinic acid 1 mM), 1.5 mM; in [5] (levulinic acid 5 mM), 2.0 mM; in [5] (levulinic acid 10 mM), 2.2 mM; in [6] (levulinic acid 0.5 mM), 2.0 mM. Also, the “Amount of ALA formed after 15 hours” value is reported as 2.5 mM in experiment [6] (levulinic acid 1 mM); 3.0 mM in experiment [6] (levulinic acid 5 mM); 1.7 mM in experiment [7] (levulinic acid 5 mM); 2.4 mM in experiment [7] (levulinic acid 15 mM); 2.2 mM in experiment [7] (levulinic acid 30 mM); 1.5 mM in experiment [8] (levulinic acid 5 mM). Further, the “Amount of ALA formed after 15 hours” value is on record as 2.5 mM in experiment [8] (levulinic acid 15 mM) and 2.0 mM in experiment [8] (levulinic acid 30 mM). Also, the “Amount of ALA formed after 30 hours” value in experiment [4] (levulinic acid 5 mM) came to 0 mM; in experiment [4] (levulinic acid 15 mM) it was 0 mM; in experiment [5] (levulinic acid 1 mM), 1.5 mM; in experiment [5] (levulinic acid 5 mM), 3.0 mM; in experiment [5] (levulinic acid 10 mM), 4.1 mM; in experiment [6] (levulinic acid 0.5 mM), 2.8 mM. Moreover, the “Amount of ALA formed after 30 hours” value in experiment [6] (levulinic acid 1 mM) is reported as 4.5 mM; in [6] (levulinic acid 5 mM) it was 6.5 mM; in experiment [7] (levulinic acid 5 mM), 2.4 mM; in [7] (levulinic acid 15 mM) it was 3.9 mM; in experiment [7] (levulinic acid 30 mM) it was 3.3 mM; in [8] (levulinic acid 5 mM), 1.5 mM. The results for the “Amount of ALA formed after 30 hours” value in experiment [8] (levulinic acid 15 mM) and in experiment [8] (levulinic acid 30 mM) were 3.8 mM and 2.5 mM, respectively.
